In patent US20030003519A1, “Compositions and methods for the discovery and selection of biological information” (priority 2000, published 2003):
Read-outs that look alike come from different tables or passages of the source.

Tested on: effect of IL-1β on SEAP reporter gene activity in selected NIH3T3 cells
Test: IL-1β-induced SEAP reporter gene activity in selected NIH3T3 cell clones
Format: cell-based
Conditions: IL-1β-stimulated selected NIH3T3 cells, read-out: IC50 value of the inhibition of SEAP activity

| SMILES | IC50 | IC50 (Mus musculus) |
| --- | --- | --- |
| COc1cccc(-c2cc(=O)c3ccccc3o2)c1N [PD98059] | ~1000 nM |  |
| N#CC(=C(/N)Sc1ccccc1N)/C(C#N)=C(\N)Sc1ccccc1N [U0126] |  | ~1000 nM |
| Cc1ccc(-c2cc(C(F)(F)F)nn2-c2ccc(S(N)(=O)=O)cc2)cc1 [celecoxib] |  | ~200 nM |
